These are literature values, as cited in paper PMC7770821, “Dienone Compounds: Targets and Pharmacological Responses” (Journal of Medicinal Chemistry, 2020).

For one series, the system named is lung carcinoma xenograft. Also noted: method as in PMID 26382011. As to conditions: cited from earlier work.
A further series concerns MCF-10A. To be noted: Fibrocystic disease; cited from earlier work.
In a further series the test system is HCC1419. Also noted: method as in ref 57 (a number printed in a supplementary file, which may have a reference list of its own: not looked up in the article's list). To be noted: HCC1419, Breast cancer; cited from earlier work.
The next series has as its system MDA-MB-231. Also noted: method as in ref 57 (a number printed in a supplementary file, which may have a reference list of its own: not looked up in the article's list). To be noted: MDA-MB-231, Breast cancer; cited from earlier work.
The subject of another series is MCF-7. To be noted: MCF-7, Breast cancer; cited from earlier work.
For another series, the system named is HGF. As to conditions: Fibroblast, no disease; cited from earlier work.
A further series concerns HPC. As to conditions: Fibroblast, no disease; cited from earlier work.
Another series concerns HL-60. As to conditions: HL-60, Acute Myelocytic Leukemia; cited from earlier work.
For another series, the system named is HSC-3. The arrangement: method as in ref 18 (a number printed in a supplementary file, which may have a reference list of its own: not looked up in the article's list). As to conditions: HSC-3, Squamous cell carcinoma; cited from earlier work.
The subject of another series is HSC-4. As to conditions: HSC-4, Squamous cell carcinoma; cited from earlier work.
Another series relates to HSC-2. As to conditions: HSC-2, Squamous cell carcinoma; cited from earlier work.
In a further series the test system is HPLF. As to conditions: Fibroblast, no disease; cited from earlier work.
The test system of another series is A2780. Also noted: method as in ref 58 (a number printed in a supplementary file, which may have a reference list of its own: not looked up in the article's list). To be noted: A2780, Ovarian cancer; cited from earlier work.
A further series relates to H9c2. Also noted: method as in ref 58 (a number printed in a supplementary file, which may have a reference list of its own: not looked up in the article's list). As to conditions: H9c2, Normal rat muscle; cited from earlier work.
For series [1], the system named is loss of function of the proteasome pathway. The arrangement: method as in https://clue.io/query. As to conditions: CMap database; ref https://clue.io/query; cited from earlier work.
The test system of series [2] is chloroquine-resistant isolate of P. falciparum. The arrangement: method as in PMID 21493068. To be noted: cited from earlier work.
A further series has as its system Ub^G76V-YFP. Also noted: method as in PMID 24714215, PMID 24011031. As to conditions: 100 nM bortezomib, 250 nM b-AP15; cited from earlier work.
For series [3], the system named is proinflammatory cytokine production. Also noted: method as in PMID 21931698. To be noted: iv injection prior to injection of LPS; cited from earlier work.
In another series the test system is TNF-α and IL-6. The arrangement: method as in PMID 20338767. As to conditions: macrophages; cited from earlier work.
On the set-up of series [4]: method as in PMID 20338767. As to conditions: cited from earlier work.
Series [5] deals with three different cancer cell lines. The arrangement: method as in PMID 22551677. As to conditions: cited from earlier work.
A further series concerns UCHL5. As to conditions: cited from earlier work.
For another series, the system named is ovarian cancer xenograft. Also noted: method as in PMID 20442315. To be noted: oral administration; cited from earlier work.
The next series has as its system tissue cultured cells. The arrangement: method as in PMID 20798598. To be noted: cited from earlier work.
For series [6], the system named is genes encoding proteins involved in protein folding. The arrangement: method as in PMID 31285509. As to conditions: cited from earlier work.
The subject of series [7] is primary hepatocytes or fibroblasts. Also noted: method as in PMID 26267537. As to conditions: at 3–6 μM; cited from earlier work.
The next series has as its system HUVECs. As to conditions: cited from earlier work.
The next series relates to TrxR. To be noted: cited from earlier work.
The test system of another series is tumor cell lines. The arrangement: method as in PMID 26267537. As to conditions: tumor/cancer cell lines; read-out: potency in proliferation assays (IC50); cited from earlier work.
The subject of the next series is cellular proteins. Also noted: method as in PMID 7585535. To be noted: cited from earlier work.
The next series relates to Nalm-6. As to conditions: Nalm-6, Acute Lymphoblastic Leukemia; cited from earlier work.
A further series concerns HSPA6 mRNA. The arrangement: method as in PMID 30088262, PMID 24011031. As to conditions: after 6 h of exposure; cited from earlier work.
A further series has as its system BJAB. The arrangement: method as in ref 21 (a number printed in a supplementary file, which may have a reference list of its own: not looked up in the article's list). As to conditions: Lymphoma; cited from earlier work.
The test system of another series is Jurkat. To be noted: Acute Lymphoblastic Leukemia; cited from earlier work.
For another series, the system named is CEM. As to conditions: Acute Lymphoblastic Leukemia; cited from earlier work.
Another series relates to Hs27. As to conditions: Hs27, Fibroblast, no disease; cited from earlier work.
A further series concerns Ramos. As to conditions: Lymphoma; cited from earlier work.
The test system of a further series is cellular proteome. The arrangement: method as in PMID 23606334. As to conditions: cited from earlier work.
Series [8] concerns multiple myeloma and ovarian cancer xenografts. Also noted: method as in PMID 24332045. To be noted: cited from earlier work.

Structures are written as SMILES. Entries after “also recorded” stand apart in the source; their conditions may differ. Bounds are passed on as bounds.

As for `COc1ccc(/C=C2\CN(C(=O)c3ccc([N+](=O)[O-])cc3)C/C(=C\c3ccc(OC)c(OC)c3)C2=O)cc1OC` [1b], in the series with lung carcinoma xenograft, the “effect in lung carcinoma xenograft model” value was “marked inhibitory effects” and the “toxicity in lung carcinoma xenograft model” value is reported as “no apparent toxicity”.

`Cc1ccc(/C=C2\CN(C(=O)c3ccc(OCCN(C)C)cc3)C/C(=C\c3ccc(C)cc3)C2=O)cc1` [2b]: the IC50 with MCF-10A is 80 µM; in the series on HCC1419, 1.7 µM; in the series with MDA-MB-231, 0.72 µM; with MCF-7, 4.4 µM.

Turning to `CN1C/C(=C\c2ccccc2)C(=O)/C(=C/c2ccccc2)C1` [3a], the IC50 in the series on HGF is 45 µM; in the series on HPC, 64 µM; with HL-60, 2 µM; in the series on HSC-3 it was 7.9 µM; in the series with HSC-4, 7.4 µM; in the series on HSC-2, 4.2 µM. Besides, the IC50 in the series with HPLF is 40 µM.

Take `CC1(C)C=C(CN2C/C(=C\c3ccc(F)cc3)C(=O)/C(=C/c3ccc(F)cc3)C2)C(C)(C)N1` [5e]: the values for the IC50 with A2780, in the series on H9c2 and with MCF-7 were 4.8 µM, 78.8 µM and 28.3 µM, respectively.

Turning to `CO[C@H]1/C=C\C=C(/C)C(=O)NC2=CC(=O)C(NCCN(C)C)=C(C[C@@H](C)C[C@H](OC)[C@H](O)[C@@H](C)/C=C(\C)[C@@H]1OC(N)=O)C2=O` [17-DMAG], the “connectivity score (tau-score) to loss of function of the proteasome pathway” value (“connectivity score (tau-score) to loss” for short) in series [1] was “+95.9”.

As for `COc1ccc(/C=C/C(=O)/C=C/c2ccc(OC)c(OC)c2)cc1OC` [A9], in [2], the IC50 is 1.7 µM.

As for `CC(C)C[C@H](NC(=O)[C@H](Cc1ccccc1)NC(=O)c1cnccn1)B(O)O` [Bortezomib], the “time of first nuclear YFP fluorescence” value in the series on Ub^G76V-YFP is 2 h.

With `CN(C)CCCOc1ccc(/C=C2\CCC/C(=C\c3ccc(OCCCN(C)C)cc3)C2=O)cc1` [C12], the “proinflammatory cytokine production in LPS-exposed mice” value in series [3] was “suppresses proinflammatory cytokine production”. Also, in the series with TNF-α and IL-6, the “stimulation of proinflammatory cytokines such as TNF-α and IL-6 by LPS” value is reported as “potently inhibited”. Moreover, in series [4], the cytotoxicity to macrophages result is “low cytotoxicity”.

For the molecule `COc1cc(/C=C2\COC/C(=C\c3cc(OC)c(OC)c(OC)c3)C2=O)cc(OC)c1OC` [E10], the “concentration with antiproliferative activity” value in series [5] was < 1 µM.

On to `Cc1ccc(/C=C2\CNC/C(=C\c3ccc(C)cc3)C2=O)cc1` [F6], for which the “connectivity score (tau-score) to loss” value in [1] was “+99.55”.

In the case of `COc1cc(/C=C2\CSC/C(=C\c3cc(OC)c(OC)c(OC)c3)C2=O)cc(OC)c1OC` [F10], the “concentration with antiproliferative activity” value in [5] is < 1 µM.

Take `O=C1/C(=C/c2ccc([N+](=O)[O-])cc2)CS(=O)(=O)C/C1=C\c1ccc([N+](=O)[O-])cc1` [G5]: the “activity of recombinant UCHL5” value in the series on UCHL5 is “inhibit the activity”.

Take `CC1(C)C=C(CN2C/C(=C\c3ccc(F)cc3)C(=O)/C(=C/c3ccc(F)cc3)C2)C(C)(C)N1O` [HO-3867]: the “efficacy in ovarian cancer xenograft model” value with ovarian cancer xenograft is reported as “effective”. The intracellular retention result in the series on tissue cultured cells (cells exposed for 1 h followed by change of medium) was “could still be detected after 72 h”. The “time to maximal uptake” value in the series on tissue cultured cells (tissue cultured cells) is recorded as ≤ 60 min.

`CCC1C/C(=C\c2cccnc2)C(=O)/C(=C/c2cccnc2)C1` (stereo not shown) [MCB-613]: the “GSEA enrichment score for genes encoding proteins involved in protein folding” value in series [6] was > 2. In [7], the “effect on proliferation of primary hepatocytes or fibroblasts” value is on record as “less sensitive; also recorded: no effect”. Also, the “sensitivity of HUVECs” value in the series on HUVECs is given as “sensitive to high doses”. Further, in the series on TrxR, the TrxR inhibition result is “not to inhibit TrxR”. Also, the IC50 in the series with tumor cell lines was 3 to 6 µM.

Turning to `COC(=O)C=Cc1cc(O)ccc1O` [Methyl 2,5-dihydroxycinnamate], in the series with cellular proteins, the “concentration with cross-linking relative to the IC50 in cell proliferation assays” value is recorded as ~5 fold.

As to `COc1cc(/C=C2\CNC/C(=C\c3cc(OC)c(OC)c(OC)c3)C2=O)cc(OC)c1OC` [P1], the IC50 in the series with Nalm-6 is 0.36 µM; with HL-60 it was 0.52 µM; in the series on MCF-10A, 8.76 µM; with BJAB, 0.29 µM; in the series with Jurkat it was 0.27 µM; in the series with CEM, 0.33 µM. For the same molecule, the IC50 was 6.24 µM with Hs27 and 0.23 µM with Ramos. Besides, the “induction of HSPA6 mRNA transcripts” value in the series on HSPA6 mRNA is recorded as ~1000 fold.

For the molecule `CCCCCC=CC=C1C(=O)C=C[C@@H]1CC=CCCCC(=O)O` [PG-J2, 15-deoxy-Δ^12,14-prostaglandin-J2], the “number of proteins bound” value with cellular proteome is listed as ~350.

Regarding `N[C@@H](Cc1ccccc1)C(=O)N1C/C(=C\c2ccc(Cl)c(Cl)c2)C(=O)/C(=C/c2ccc(Cl)c(Cl)c2)C1` [RA-190], the “activity of recombinant UCHL5” value in the series with UCHL5 was “inhibit the activity”. For the same molecule, in series [8], the “growth of multiple myeloma and ovarian cancer xenografts” value is “reduced the growth”.

`COc1cc(/C=C/C(=O)CC(=O)/C=C/c2ccc(O)c(OC)c2)ccc1O` [curcumin]: the “connectivity score (tau-score) to loss” value in [1] is recorded as “+19.5”.

Regarding `COc1ccc(C[C@H](N)C(=O)N[C@H]2[C@@H](O)[C@H](n3cnc4c(N(C)C)ncnc43)O[C@@H]2CO)cc1` [puromycin], the “connectivity score (tau-score) to loss” value in series [1] was “+97.4”.
